Activity calls are given as the source filed them. No cut-off for these calls is given here.
Key:
T47D [1] = assay: Induction of apoptosis in human T47D cells assessed as caspase activation after 48 hrs by HTS assay; assay type: functional, cell-based
HCT-116 [2] = assay: Induction of apoptosis in human HCT116 cells assessed as caspase activation after 48 hrs by HTS assay; assay type: functional, cell-based; settings: HCT-116, 48 h
SNU-398 [3] = assay: Induction of apoptosis in human SNU398 cells assessed as caspase activation after 48 hrs by HTS assay; assay type: functional, cell-based; settings: SNU-398, 48 h
HCT-116 [4] = assay: Ratio of drug to paclitaxel for induction of apoptosis in human HCT116 cells assessed as caspase activation after 48 hrs by HTS assay; assay type: functional
T47D [5] = assay: Ratio of drug to paclitaxel for induction of apoptosis in human T47D cells assessed as caspase activation after 48 hrs by HTS assay; assay type: functional
T47D [6] = assay: Ratio of drug to vinblastin for induction of apoptosis in human T47D cells assessed as caspase activation after 48 hrs by HTS assay; assay type: functional
HCT-116 [7] = assay: Ratio of drug to vinblastin for induction of apoptosis in human HCT116 cells assessed as caspase activation after 48 hrs by HTS assay; assay type: functional
SNU-398 [8] = assay: Ratio of drug to paclitaxel for induction of apoptosis in human SNU398 cells assessed as caspase activation after 48 hrs by HTS assay; assay type: functional
SNU-398 [9] = assay: Ratio of drug to vinblastin for induction of apoptosis in human SNU398 cells assessed as caspase activation after 48 hrs by HTS assay; assay type: functional
T47D [10] = assay: Growth inhibition of human T47D cells after 48 hrs; assay type: functional
HCT-116 [11] = assay: Growth inhibition of human HCT116 cells after 48 hrs; assay type: functional; settings: HCT-116, 48 h
SNU-398 [12] = assay: Growth inhibition of human SNU398 cells after 48 hrs; assay type: functional; settings: SNU-398, 48 h
[13] = Inhibition of tubulin polymerization at 2 uM
[14] = Inhibition of tubulin polymerization at 3 uM
[15] = Inhibition of tubulin polymerization at 0.5 uM
T47D [16] = assay: Induction of apoptosis in human T47D cells assessed as accumulation at sub G1 phase at 2 uM after 24 hrs by propidium iodide-based flow cytometry; assay type: functional
T47D [17] = assay: Induction of apoptosis in human T47D cells assessed as accumulation at G1 phase at 2 uM after 24 hrs by propidium iodide-based flow cytometry; assay type: functional
T47D [18] = assay: Induction of apoptosis in human T47D cells assessed as accumulation at S phase at 2 uM after 24 hrs by propidium iodide-based flow cytometry; assay type: functional
T47D [19] = assay: Induction of apoptosis in human T47D cells assessed as accumulation at G2M phase at 2 uM after 24 hrs by propidium iodide-based flow cytometry; assay type: functional
T47D [20] = assay: Induction of apoptosis in human T47D cells assessed as accumulation at sub G1 phase at 2 uM after 48 hrs by propidium iodide-based flow cytometry; assay type: functional
T47D [21] = assay: Induction of apoptosis in human T47D cells assessed as accumulation at G1 phase at 2 uM after 48 hrs by propidium iodide-based flow cytometry; assay type: functional
T47D [22] = assay: Induction of apoptosis in human T47D cells assessed as accumulation at S phase at 2 uM after 48 hrs by propidium iodide-based flow cytometry; assay type: functional
T47D [23] = assay: Induction of apoptosis in human T47D cells assessed as accumulation at G2M phase at 2 uM after 48 hrs by propidium iodide-based flow cytometry; assay type: functional

Compound | EC50 (T47D [1]) [nM] | EC50 (HCT-116 [2]) [nM] | EC50 (SNU-398 [3]) [nM] | also measured
O=C(Nc1ccccc1-n1cccn1)c1ccccc1C(=O)c1ccccc1 | > 10000 | > 10000 | > 10000 | –
O=C(Nc1ccccc1-n1cccn1)c1cccc2c1C(=O)c1cc([N+](=O)[O-])ccc1-2 | 290 | 220 | 150 | Ratio (HCT-116 [4]): <10; Ratio (T47D [5]): <10; Ratio (T47D [6]): <10; Ratio (HCT-116 [7]): <10; Ratio (SNU-398 [8]): <10; Ratio (SNU-398 [9]): <10; GI50 (T47D [10]): 110 nM; GI50 (HCT-116 [11]): 420 nM; GI50 (SNU-398 [12]): 72 nM; inhibition [13]: 50%; inhibition [14]: 50%; inhibition [15]: Active
[N-]=[N+]=Nc1ccc2c(c1)C(=O)c1c(C(=O)Nc3ccccc3-n3cccn3)cccc1-2 | 470 | 290 | 150 | –
O=C(Nc1ccccc1-n1cccn1)c1cccc2c1[nH]c1ccccc12 | > 10000 | > 10000 | > 10000 | –
O=C(Nc1ccccc1-n1cccn1)c1cccc2c1C(=O)c1ccccc1-2 | – | – | – | GI50 (T47D [10]): 160 nM; GI50 (HCT-116 [11]): 1100 nM; GI50 (SNU-398 [12]): 780 nM
O=C(Nc1ccccc1-n1cccn1)c1cccc2c1sc1ccccc12 | 2100 | 2200 | 1500 | –
O=C(Nc1ccccc1-n1cccn1)c1cccc2c1OCC2 | > 10000 | > 10000 | > 10000 | –
CC(=O)O[C@H]1C(=O)[C@@]2(C)[C@H]([C@H](OC(=O)c3ccccc3)[C@]3(O)C[C@H](OC(=O)[C@H](O)[C@@H](NC(=O)c4ccccc4)c4ccccc4)C(C)=C1C3(C)C)[C@]1(OC(C)=O)CO[C@@H]1C[C@@H]2O [PACLITAXEL] | – | – | – | GI50 (T47D [10]): 26 nM; GI50 (HCT-116 [11]): 60 nM; GI50 (SNU-398 [12]): 61 nM
CC[C@]1(O)C[C@@H]2CN(CCc3c([nH]c4ccccc34)[C@@](C(=O)OC)(c3cc4c(cc3OC)N(C)[C@H]3[C@@](O)(C(=O)OC)[C@H](OC(C)=O)[C@]5(CC)C=CCN6CC[C@]43[C@@H]65)C2)C1 [VINBLASTINE] | – | – | – | GI50 (T47D [10]): 7 nM; GI50 (HCT-116 [11]): 10 nM; GI50 (SNU-398 [12]): 5 nM
O=C(Nc1ccccc1-n1cc(Br)cn1)c1cccc2c1C(=O)c1cc([N+](=O)[O-])ccc1-2 | 1300 | 1500 | 1400 | –
O=C(Nc1ccccc1-n1cccn1)c1cccc2c3ccccc3[s+]([O-])c12 (configuration not stated) | > 10000 | > 10000 | > 10000 | –
O=C(Nc1ccccc1-n1cccn1)c1cccc2c1oc1ccccc12 | > 10000 | > 10000 | > 10000 | –

The next lines start with results.

EC50 (T47D [1]) [nM] | EC50 (HCT-116 [2]) [nM] | EC50 (SNU-398 [3]) [nM] | Compound | also measured
2400 | > 10000 | > 10000 | Cc1ccc(C)c(NC(=O)c2cccc3c2Cc2ccccc2-3)c1 | –
3000 | > 10000 | > 10000 | Cc1ccccc1NC(=O)c1cccc2c1C(O)c1ccccc1-2 (configuration not stated) | –
> 10000 | > 10000 | > 10000 | Cc1cccc(NC(=O)c2cccc3c2Cc2ccccc2-3)c1C | –
3200 | 6200 | 6900 | O=C(Nc1ccccc1-n1cccn1)c1cccc2c1Cc1ccccc1-2 | –
970 | 370 | 150 | Nc1ccc2c(c1)C(=O)c1c(C(=O)Nc3ccccc3-n3cccn3)cccc1-2 | Ratio (HCT-116 [4]): <10; Ratio (T47D [5]): <10; Ratio (T47D [6]): <10; Ratio (HCT-116 [7]): <10; Ratio (SNU-398 [8]): <10; Ratio (SNU-398 [9]): <10; GI50 (T47D [10]): 150 nM; GI50 (HCT-116 [11]): 510 nM; GI50 (SNU-398 [12]): 84 nM; Activity (T47D [16]): 12%; Activity (T47D [17]): 11%; Activity (T47D [18]): 14%; Activity (T47D [19]): 60%; Activity (T47D [20]): 50%; Activity (T47D [21]): 10%; Activity (T47D [22]): 10%; Activity (T47D [23]): 24%; inhibition [13]: 50%; inhibition [14]: 50%; inhibition [15]: Active
1700 | > 10000 | > 10000 | Cc1ccccc1NC(=O)c1cccc2c1Cc1ccccc1-2 | –
> 10000 | > 10000 | 480 | O=C(Nc1ccccc1-n1cccn1)c1cccc2c1S(=O)(=O)c1ccccc1-2 | –
> 10000 | > 10000 | > 10000 | Cc1ccc(NC(=O)c2cccc3c2Cc2ccccc2-3)c(C)c1 | –

From ChEMBL document CHEMBL1159042, “Discovery of N-aryl-9-oxo-9H-fluorene-1-carboxamides as a new series of apoptosis inducers using a cell- and caspase-based high-throughput screening assay. 2. Structure-activity relationships of the 9-oxo-9H-fluorene ring” (Bioorg Med Chem Lett, 2010)
